In patent US10150758B2, “PRMT5 inhibitors and uses thereof” (Epizyme, Inc., priority 2012, dated 2018) one finds EC50 data, which are given here for 11 molecules.

Bounds are passed on as bounds.

In assay [1] the test system is symmetric di-methyl arginine in Z-138 cells. Briefly: Z-138 Methylation Assay (In Cell Western for symmetric di-methyl arginine and DNA content). It is filed as cell-based. The conditions noted are these: Homo sapiens, 96 hours incubation, read-out: ICW EC50. From the text:
[formula] [formula] Where top and bottom are the normally allowed to float, but may be fixed at 100 or 0 respectively in a 3-parameter fit. The Hill Coefficient normally allowed to float but may also be fixed at 1 in a 3-parameter fit. Y is the % inhibition and X is the compound concentration. Z-138 Methylation Assay
Z-138 suspension cells were purchased from ATCC (American Type Culture Collection, Manassas, Va.). RPMI/Glutamax medium, penicillin-streptomycin, heat inactivated fetal bovine serum, and D-PBS were purchased from Life Technologies, Grand Island, N.Y., USA. Odyssey blocking buffer, 800CW goat anti-rabbit IgG (H+L) antibody, and Licor Odyssey infrared scanner were purchased from Licor Biosciences, Lincoln, Nebr., USA. Symmetric di-methyl arginine antibody was purchased from EMD Millipore, Billerica, Mass., USA. 16% Paraformaldehyde was purchased from Electron Microscopy Sciences, Hatfield, Pa., USA.
Z-138 suspension cells were maintained in growth medium (RPMI 1640 supplemented with 10% v/v heat inactivated fetal bovine serum and 100 units/mL penicillin-streptomycin) and cultured at 37° C. under 5% CO2.
Cell Treatment, in Cell Western (ICW) for Detection of Symmetric Di-Methyl Arginine and DNA Content.
Z-138 cells were seeded in assay medium at a concentration of 50,000 cells per mL to a 384-well cell culture plate with 50 μL per well. Compound (100 nL) from 384 well source plates was added directly to 384 well cell plate. Plates were incubated at 37° C., 5% CO2 for 96 hours. After four days of incubation, 40 μL of cells from incubated plates were added to poly-D-lysine coated 384 well culture plates (BD Biosciences 356697). Plates were incubated at room temperature for 30 minutes then incubated at 37° C., 5% CO2 for 5 hours. After the incubation, 40 μL per well of 8% paraformaldehyde in PBS (16% paraformaldahyde was diluted to 8% in PBS) was added to each plate and incubated for 30 minutes. Plates were transferred to a Biotek 405 plate washer and washed 5 times with 100 μL per well of wash buffer (1×PBS with 0.1% Triton X-100 (v/v)). Next 30 μL per well of Odyssey blocking buffer were added to each plate and incubated 1 hour at room temperature. Blocking buffer was removed and 20 μL per well of primary antibody was added (symmetric di-methyl arginine diluted 1:100 in Odyssey buffer with 0.1% Tween 20 (v/v)) and plates were incubated overnight (16 hours) at 4° C. Plates were washed 5 times with 100 μL per well of wash buffer. Next 20 μL per well of secondary antibody was added (1:200 800CW goat anti-rabbit IgG (H+L) antibody, 1:1000 DRAQ5 (Biostatus limited) in Odyssey buffer with 0.1% Tween 20 (v/v)) and incubated for 1 hour at room temperature. The plates were washed 5 times with 100 μL per well wash buffer then 1 time with 100 μL per well of water. Plates were allowed to dry at room temperature then imaged on the Licor Odyssey machine which measures integrated intensity at 700 nm and 800 nm wavelengths. Both 700 and 800 channels were scanned.
First, the ratio for each well was determined by:
Each plate included fourteen control wells of DMSO only treatment (minimum inhibition) as well as fourteen control wells for maximum inhibition treated with 3 μM of a reference compound (Background wells). The average of the ratio values for each control type was calculated and used to determine the percent inhibition for each test well in the plate. Reference compound was serially diluted three-fold in DMSO for a total of nine test concentrations, beginning at 3 μM. Percent inhibition was determined and IC50 curves were generated using triplicate wells per concentration of compound.

In a further assay the test system is Z-138 cells. In words: Z-138 Proliferation Assay (Cell Titer Glo). In kind it is cell-based. Conditions: Homo sapiens, 120 h, 5 days, top concentration 20 μM. From the text:
[formula] Z-138 Proliferation Assay
Z-138 suspension cells were purchased from ATCC (American Type Culture Collection, Manassas, Va.). RPMI/Glutamax medium, penicillin-streptomycin, heat inactivated fetal bovine serum were purchased from Life Technologies, Grand Island, N.Y., USA. V-bottom polypropylene 384-well plates were purchased from Greiner Bio-One, Monroe, N.C., USA. Cell culture 384-well white opaque plates were purchased from Perkin Elmer, Waltham, Mass., USA. Cell-Titer Glo® was purchased from Promega Corporation, Madison, Wis., USA. SpectraMax M5 plate reader was purchased from Molecular Devices LLC, Sunnyvale, Calif., USA.
Z-138 suspension cells were maintained in growth medium (RPMI 1640 supplemented with 10% v/v heat inactivated fetal bovine serum and cultured at 37° C. under 5% CO2. Under assay conditions, cells were incubated in assay medium (RPMI 1640 supplemented with 10% v/v heat inactivated fetal bovine serum and 100 units/mL penicillin-streptomycin) at 37° C. under 5% CO2.
For the assessment of the effect of compounds on the proliferation of the Z-138 cell line, exponentially growing cells were plated in 384-well white opaque plates at a density of 10,000 cells/ml in a final volume of 50 μl of assay medium. A compound source plate was prepared by performing triplicate nine-point 3-fold serial dilutions in DMSO, beginning at 10 mM (final top concentration of compound in the assay was 20 μM and the DMSO was 0.2%). A 100 nL aliquot from the compound stock plate was added to its respective well in the cell plate. […] After addition of compounds, assay plates were incubated for 5 days at 37° C., 5% CO2, relative humidity >90%. Cell viability was measured by quantitation of ATP present in the cell cultures, adding 35 μl of Cell Titer Glo® reagent to the cell plates. Luminescence was read in the SpectraMax M5 microplate reader. The concentration of compound inhibiting cell viability by 50% was determined using a 4-parametric fit of the normalized dose response curves.

The term EC50 denotes the concentration needed to bring the measured effect to its halfway point. As to `O=C1CN(c2cncc(N3CCOCC3)c2)CCN1CC(O)CN1CCc2ccccc2C1` (stereo not shown) [Compound 8, 1-(3-(3,4-dihydroisoquinolin-2(1H)-yl)-2-hydroxypropyl)-4-(5-morpholinopyridin-3-yl)piperazin-2-one], the figures for the EC50 (in assay [1]; with Z-138 cells) were 101 to 1000 nM and 1000 to 10000 nM, respectively.
In the case of `O=C1CN(c2ccccc2Cl)CCN1CC(O)CN1CCc2ccccc2C1` (stereo not shown) [Compound 9], the results for the EC50 (in assay [1]; in the assay on Z-138 cells) were 101 to 1000 nM and 10000 to 50000 nM, respectively.
For `CN(C)c1ccccc1N1CCN(C[C@H](O)CN2CCc3ccccc3C2)C(=O)C1` [Compound 29] the same measures were 101 to 1000 nM and 10000 to 50000 nM.
For `O=C1CN(c2cccc(N3CCOCC3)c2)CCN1CC(O)CN1CCc2ccccc2C1` (stereo not shown) [Compound 12, 1-(3-(3,4-dihydroisoquinolin-2(1H)-yl)-2-hydroxypropyl)-4-(3-morpholinophenyl)piperazin-2-one], in that order: < 100 nM and 1000 to 10000 nM.
For `Cc1ccc(N2CCN(CC(O)CN3CCc4ccccc4C3)C(=O)C2)cc1` (stereo not shown) [Compound 15, 1-(3-(3,4-dihydroisoquinolin-2(1H)-yl)-2-hydroxypropyl)-4-(p-tolyl)piperazin-2-one], in that order: 101 to 1000 nM and > 20000 nM.
As for `O=C1CN(c2cccc3cccnc23)CCN1CC(O)CN1CCc2ccccc2C1` (stereo not shown) [Compound 4, 1-(3-(3,4-dihydroisoquinolin-2(1H)-yl)-2-hydroxypropyl)-4-(quinolin-8-yl)piperazin-2-one], the EC50 in assay [1] lay within 101 to 1000 nM; in the assay with Z-138 cells, 1000 to 10000 nM.
On to `O=c1cc(Nc2ccccc2)ccn1C[C@H](O)CN1CCc2ccccc2C1` [Compound 19, (R)-1-(3-(3,4-dihydroisoquinolin-2(1H)-yl)-2-hydroxypropyl)-4-(phenylamino)pyridin-2(1H)-one], for which the EC50 is 101 to 1000 nM in assay [1] and > 20000 nM in the assay with Z-138 cells.
For `O=C1COc2ccccc2N1CC(O)CN1CCc2ccccc2C1` (stereo not shown) [Compound 31, 4-(3-(3,4-dihydroisoquinolin-2(1H)-yl)-2-hydroxypropyl)-2H-benzo[b][1,4]oxazin-3(4H)-one] the same measures were 101 to 1000 nM and > 20000 nM.
On to `O=C1CN(c2cccc(F)c2)CCN1CC(O)CN1CCc2ccccc2C1` (stereo not shown) [Compound 6], for which the figures for the EC50 (in assay [1]; in the assay on Z-138 cells) were 101 to 1000 nM and > 20000 nM, respectively.
Consider `O=C1CN(c2ccc(Cl)cc2)CCN1CC(O)CN1CCc2ccccc2C1` (stereo not shown) [Compound 7, 4-(4-chlorophenyl)-1-(3-(3,4-dihydroisoquinolin-2(1H)-yl)-2-hydroxypropyl)piperazin-2-one], for which the EC50 in assay [1] fell in the range of 101 to 1000 nM; in the assay on Z-138 cells it was 10000 to 50000 nM.
As to `O=C1Cc2ccccc2N1CC(O)CN1CCc2ccccc2C1` (stereo not shown) [Compound 1, 1-(3-(3,4-dihydroisoquinolin-2(1H)-yl)-2-hydroxypropyl)indolin-2-one], the EC50 in assay [1] was 101 to 1000 nM; in the assay on Z-138 cells it was > 20000 nM.
